# Laboratory results as given in ChEMBL document CHEMBL5143660, “Investigation on the chemical space of the substituted triazole thio-benzoxazepinone RIPK1 inhibitors” (Eur J Med Chem, 2022).
# The source made the active and inactive calls. The rule behind the calls is not given here.
# Tests used:
# [1] = molecular target: T1, Receptor-interacting serine/threonine-protein kinase 1 (Homo sapiens, UniProt Q13546); assay: Binding affinity to wild-type human partial length RIPK1 (M1 to K305 residues) expressed in bacterial expression system incubated for 1 hr under shaking condition by Kinomescan method
# T1 sequence (Q13546 whole entry): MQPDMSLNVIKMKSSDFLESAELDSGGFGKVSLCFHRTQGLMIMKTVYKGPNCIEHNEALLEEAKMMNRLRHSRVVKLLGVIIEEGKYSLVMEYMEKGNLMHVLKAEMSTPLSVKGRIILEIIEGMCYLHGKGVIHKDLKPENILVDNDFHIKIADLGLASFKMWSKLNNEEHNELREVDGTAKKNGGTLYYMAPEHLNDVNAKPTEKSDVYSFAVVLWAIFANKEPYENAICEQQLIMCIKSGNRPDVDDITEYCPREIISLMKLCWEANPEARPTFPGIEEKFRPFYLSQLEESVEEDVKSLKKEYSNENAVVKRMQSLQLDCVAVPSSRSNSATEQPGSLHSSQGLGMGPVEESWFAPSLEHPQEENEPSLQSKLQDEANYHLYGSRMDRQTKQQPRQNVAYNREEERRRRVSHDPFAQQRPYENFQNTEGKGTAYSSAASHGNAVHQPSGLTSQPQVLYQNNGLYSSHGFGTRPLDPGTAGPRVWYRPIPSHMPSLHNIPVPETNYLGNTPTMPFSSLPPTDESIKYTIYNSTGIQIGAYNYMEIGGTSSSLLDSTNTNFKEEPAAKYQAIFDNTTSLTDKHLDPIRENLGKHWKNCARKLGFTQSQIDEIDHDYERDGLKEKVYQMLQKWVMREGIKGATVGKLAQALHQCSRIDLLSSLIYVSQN
# [2] = Cytotoxicity against human HT-29 cells assessed as reduction in cell viability; assay type: toxicity, cell-based
# [3] = tested on: HT-29; assay: Anti-necroptic activity in human HT-29 cells assessed as inhibition of TSZ induced necroptosis measured after 16 to 24 hrs by celltiter-glo luminescent cell viability assay; assay type: functional, cell-based
# [4] = tested on: HT-29; assay: Anti-necroptic activity in human HT-29 cells assessed as inhibition of TCZ induced necroptosis measured after 16 hrs by celltiter-glo luminescent cell viability assay; assay type: functional, cell-based; conditions: dose 0.781-200 nM, DDE = dose-dependent effect
# [5] = tested on: HT-29; assay: Inhibition of RIPK1-RIPK3-MLKL pathway in TSZ induced human HT-29 cells assessed as reduction in necrosome formation at 10 nM measured after 6 hrs by Western blot analysis; assay type: cell-based
# [6] = tested on: Mus musculus; assay: Anti-necroptic activity against mTNFalpha-induced systemic inflammatory response syndrome C57BL/6J mouse model assessed as protection of body temperature pretreated with compound at 5 to 15 mg/kg, IG administered as single dose followed by mTNFalpha injection measured after 2 to 3 hrs; assay type: functional, organism-based; conditions: dose 5-15 mg/kg, time 2-3 hrs
# [7] = molecular target: T2, Mixed lineage kinase domain-like protein (Homo sapiens) (UniProt Q8NB16); assay: Inhibition of MLKL phosphorylation in TSZ-induced human HT-29 cells pretreated with compound followed by TSZ stimulation and measured after 6 hrs by immunoblotting analysis; assay type: cell-based; conditions: dose 0.5-20 nM, DDE = dose-dependent effect
# T2 sequence (whole entry): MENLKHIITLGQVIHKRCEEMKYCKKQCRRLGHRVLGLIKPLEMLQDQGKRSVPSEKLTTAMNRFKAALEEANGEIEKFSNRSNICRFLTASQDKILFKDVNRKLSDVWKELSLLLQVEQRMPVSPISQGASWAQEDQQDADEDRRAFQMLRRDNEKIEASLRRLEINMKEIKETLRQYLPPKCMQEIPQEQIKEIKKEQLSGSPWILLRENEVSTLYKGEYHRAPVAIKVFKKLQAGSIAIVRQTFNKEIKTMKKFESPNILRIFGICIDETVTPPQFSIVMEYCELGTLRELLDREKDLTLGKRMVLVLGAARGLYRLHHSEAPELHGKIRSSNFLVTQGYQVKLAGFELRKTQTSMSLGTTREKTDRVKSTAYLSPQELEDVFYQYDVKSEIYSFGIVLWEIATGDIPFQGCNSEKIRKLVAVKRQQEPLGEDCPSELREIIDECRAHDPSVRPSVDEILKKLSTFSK
# [8] = molecular target: Receptor-interacting serine/threonine-protein kinase 3 (Homo sapiens) (UniProt Q9Y572); assay: Inhibition of RIPK3 phosphorylation in TSZ-induced human HT-29 cells at 2 to 4 nM pretreated with compound followed by TSZ stimulation and measured after 6 hrs by immunoblotting analysis; assay type: cell-based; conditions: dose 2-4 nM
# Receptor-interacting serine/threonine-protein kinase 3 (Homo sapiens), sequence (Q9Y572 whole entry, looked up): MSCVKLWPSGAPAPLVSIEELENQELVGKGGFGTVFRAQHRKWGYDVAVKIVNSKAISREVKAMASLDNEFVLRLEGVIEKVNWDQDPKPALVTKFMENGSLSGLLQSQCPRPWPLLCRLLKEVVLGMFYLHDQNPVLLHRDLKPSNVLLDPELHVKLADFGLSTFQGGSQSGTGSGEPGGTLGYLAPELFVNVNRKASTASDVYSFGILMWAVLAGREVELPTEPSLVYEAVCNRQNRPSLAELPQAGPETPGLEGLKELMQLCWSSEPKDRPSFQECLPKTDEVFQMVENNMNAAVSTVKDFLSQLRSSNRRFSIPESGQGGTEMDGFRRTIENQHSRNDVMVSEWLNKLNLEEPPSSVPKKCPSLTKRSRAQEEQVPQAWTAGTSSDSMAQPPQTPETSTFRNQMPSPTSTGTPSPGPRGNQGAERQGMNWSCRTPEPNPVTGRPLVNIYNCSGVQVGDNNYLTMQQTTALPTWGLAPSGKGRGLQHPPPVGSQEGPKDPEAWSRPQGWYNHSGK
# [9] = tested on: Mus musculus; assay: Anti-necroptic activity against mTNFalpha induced C57BL/6J mouse systemic inflammatory response syndrome model assessed as survival rate pretreated with compound at 5 mg/kg, IG administered as single dose followed by mTNFalpha injection and measured over 60 hrs; assay type: functional
# [10] = molecular target: Receptor-interacting serine/threonine-protein kinase 3 (Homo sapiens) (UniProt Q9Y572); assay: Inhibition of RIPK3 phosphorylation in TSZ-induced human HT-29 cells at 10 nM pretreated with compound followed by TSZ stimulation and measured after 2 to 6 hrs by immunoblotting analysis; assay type: cell-based; conditions: time 2-6 hrs
# [11] = tested on: U-937; assay: Anti-necroptic activity in human U-937 cells assessed as inhibition of TSZ induced necroptosis pretreated with compound followed by TSZ addition ans measured after 12 hrs by celltiter-glo luminescent cell viability assay; assay type: functional, cell-based; conditions: dose 0.312-200 nM, DDE = dose-dependent effect
# [12] = molecular target: Receptor-interacting serine/threonine-protein kinase 3 (Homo sapiens) (UniProt Q9Y572); assay: Inhibition of RIPK3 phosphorylation in TSZ-induced human HT-29 cells pretreated with compound followed by TSZ stimulation and measured after 6 hrs by immunoblotting analysis; assay type: cell-based; conditions: dose 0.5-20 nM, DDE = dose-dependent effect
# [13] = tested on: Mus musculus; assay: Anti-necroptic activity against mTNFalpha induced C57BL/6J mouse systemic inflammatory response syndrome model assessed as survival rate pretreated with compound at 10 mg/kg, IG administered as single dose followed by mTNFalpha injection and measured over 60 hrs; assay type: functional
# [14] = tested on: L929; assay: Anti-necroptic activity in mouse L929 cells assessed as inhibition of TZ induced necroptosis pretreated with compound followed by TZ addition and measured after 12 hrs by celltiter-glo luminescent cell viability assay; assay type: functional, cell-based; conditions: dose 0.078-10 µM, DDE = dose-dependent effect
# [15] = molecular target: T3, Receptor-interacting serine/threonine-protein kinase 1 (Homo sapiens) (UniProt Q13546); assay: Inhibition of RIPK1 phosphorylation in TSZ-induced human HT-29 cells at 10 nM pretreated with compound followed by TSZ stimulation and measured after 2 to 6 hrs by immunoblotting analysis; assay type: cell-based; conditions: time 2-6 hrs
# T3 sequence (whole entry): T1 sequence (Q13546 whole entry)
# [16] = molecular target: T2, Mixed lineage kinase domain-like protein (Homo sapiens); assay: Inhibition of MLKL phosphorylation in TSZ-induced human HT-29 cells at 2 to 4 nM pretreated with compound followed by TSZ stimulation and measured after 6 hrs by immunoblotting analysis; assay type: cell-based; conditions: dose 2-4 nM
# [17] = tested on: Mus musculus; assay: Anti-necroptic activity against mTNFalpha induced C57BL/6J mouse systemic inflammatory response syndrome model assessed as survival rate pretreated with compound at 15 mg/kg, IG administered as single dose followed by mTNFalpha injection and measured over 60 hrs; assay type: functional
# [18] = molecular target: T3, Receptor-interacting serine/threonine-protein kinase 1 (Homo sapiens); assay: Inhibition of RIPK1 phosphorylation in TSZ-induced human HT-29 cells pretreated with compound followed by TSZ stimulation and measured after 6 hrs by immunoblotting analysis; assay type: cell-based; conditions: dose 0.5-20 nM, DDE = dose-dependent effect
# [19] = molecular target: T3, Receptor-interacting serine/threonine-protein kinase 1 (Homo sapiens); assay: Inhibition of RIPK1 phosphorylation in TSZ-induced human HT-29 cells at 2 to 4 nM pretreated with compound followed by TSZ stimulation and measured after 6 hrs by immunoblotting analysis; assay type: cell-based; conditions: dose 2-4 nM
# [20] = molecular target: T2, Mixed lineage kinase domain-like protein (Homo sapiens); assay: Inhibition of downstream MLKL phosphorylation in TSZ-induced human HT-29 cells at 10 nM pretreated with compound followed by TSZ stimulation and measured after 2 to 6 hrs by immunoblotting analysis; assay type: cell-based; conditions: time 2-6 hrs
# [21] = tested on: HT-29; assay: Anti-necroptic activity in human HT-29 cells assessed as inhibition of TSZ induced necroptosis measured after 12 hrs by celltiter-glo luminescent cell viability assay; assay type: functional, cell-based; conditions: dose 0.195-200 nM, DDE = dose-dependent effect
Structure (SMILES),CC50 [2] [nM],EC50 [3] [nM],also measured
CN1C(=S)[C@@H](NC(=O)c2nc(Cc3ccccc3)n(CC(F)(F)F)n2)COc2ccccc21,> 100000,36,Kd [1]: 267 nM
CN1C(=S)[C@@H](NC(=O)c2nc(Cc3ccccc3)n(C3CCN(C(=O)OC(C)(C)C)CC3)n2)COc2ccccc21,> 100000,> 10000,–
CN1C(=S)[C@@H](NC(=O)c2nc(Cc3ccccc3)n(C3CCCCCC3)n2)COc2ccccc21,> 100000,5520,–
CN1C(=S)[C@@H](NC(=O)c2n[nH]c(Cc3ccccc3)n2)COc2ccccc21,> 50000,–,Kd [1]: 31 nM
CCCCCn1nc(C(=O)N[C@H]2COc3ccccc3N(C)C2=S)nc1Cc1ccccc1,> 100000,805,–
CN1C(=S)[C@@H](NC(=O)c2nc(Cc3ccccc3)n(C3CCOC3)n2)COc2ccccc21 (stereo partly specified),> 100000,1580,Kd [1]: 272 nM
CN1C(=S)[C@@H](NC(=O)c2nc(Cc3ccccc3)n(CCCCCC#N)n2)COc2ccccc21,> 100000,3830,–
CN1C(=S)[C@@H](NC(=O)c2nc(Cc3ccccc3)n(C)n2)COc2ccccc21,> 100000,2.5,Kd [1]: 31 nM; Activity [4]: Dde; inhibition [5]: Active; Activity [6]: Active; inhibition [7]: Dde; inhibition [8]: 100%; Activity [9]: 70%; inhibition [10]: 100%; Activity [11]: Dde; inhibition [12]: Dde; Activity [13]: 100%; Activity [14]: Dde; inhibition [15]: 100%; inhibition [16]: 100%; Activity [17]: 100%; inhibition [18]: Dde; inhibition [19]: 100%; inhibition [20]: Active; Activity [21]: Dde
CN1C(=S)[C@@H](NC(=O)c2nc(Cc3ccccc3)n(CC3COC3)n2)COc2ccccc21,> 100000,2820,–
CN1C(=S)[C@@H](NC(=O)c2nc(Cc3ccccc3)n(C3CCCCC3)n2)COc2ccccc21,> 100000,4000,–
CC(C)n1nc(C(=O)N[C@H]2COc3ccccc3N(C)C2=S)nc1Cc1ccccc1,> 100000,360,–
CN1C(=S)[C@@H](NC(=O)c2nc(Cc3ccccc3)n(C3CCN(C(=O)OC(C)(C)C)C3)n2)COc2ccccc21 (stereo partly specified),> 100000,> 10000,–
CC(C)CCn1nc(C(=O)N[C@H]2COc3ccccc3N(C)C2=S)nc1Cc1ccccc1,> 100000,3640,–
CN1C(=S)[C@@H](NC(=O)c2nc(Cc3ccccc3)n(CCCF)n2)COc2ccccc21,> 100000,4760,–
CN1C(=S)[C@@H](NC(=O)c2nc(Cc3ccccc3)n(CCCC(F)(F)F)n2)COc2ccccc21,> 100000,2380,–
CN1C(=S)[C@@H](NC(=O)c2nc(Cc3ccccc3)n(C3CCNC3)n2)COc2ccccc21 (stereo partly specified),> 100000,1070,–
CN1C(=S)[C@@H](NC(=O)c2nc(Cc3ccccc3)n(CC3CCOC3)n2)COc2ccccc21 (stereo partly specified),> 100000,4420,–
CN1C(=S)[C@@H](NC(=O)c2nc(Cc3ccccc3)n(CCCC#N)n2)COc2ccccc21,> 100000,2400,–
CN1C(=S)[C@@H](NC(=O)c2nc(Cc3ccccc3)n(C3COC3)n2)COc2ccccc21,> 100000,916,–

Structure (SMILES),CC50 [2] [nM],EC50 [3] [nM],also measured
CN1C(=S)[C@@H](NC(=O)c2nc(Cc3ccccc3)n(C3CCNCC3)n2)COc2ccccc21,> 100000,1000,–
CN1C(=S)[C@@H](NC(=O)c2nc(Cc3ccccc3)n(-c3ncccn3)n2)COc2ccccc21,> 100000,3970,–
CN1C(=S)[C@@H](NC(=O)c2nc(Cc3ccccc3)n(C3CCOCC3)n2)COc2ccccc21,> 100000,2260,–
CN1C(=S)[C@@H](NC(=O)c2nc(Cc3ccccc3)n(CC(F)F)n2)COc2ccccc21,> 100000,8.9,–
CN1C(=S)[C@@H](NC(=O)c2nc(Cc3ccccc3)n(CCCO)n2)COc2ccccc21,> 100000,208,–
CC(C)Cn1nc(C(=O)N[C@H]2COc3ccccc3N(C)C2=S)nc1Cc1ccccc1,> 100000,1230,–
CN1C(=S)[C@@H](NC(=O)c2nc(Cc3ccccc3)n(CCC(F)(F)F)n2)COc2ccccc21,> 100000,1550,–
CN1C(=S)[C@@H](NC(=O)c2nc(Cc3ccccc3)n(CC3CCOCC3)n2)COc2ccccc21,> 100000,6310,–
CN1C(=S)[C@@H](NC(=O)c2nc(Cc3ccccc3)n(Cc3ccccc3)n2)COc2ccccc21,> 100000,414,–
CN1C(=S)[C@@H](NC(=O)c2nc(Cc3ccccc3)n(C3CCC3)n2)COc2ccccc21,> 100000,181,Kd [1]: 301 nM
CCCCn1nc(C(=O)N[C@H]2COc3ccccc3N(C)C2=S)nc1Cc1ccccc1,> 100000,510,–
Cc1cnc(-n2nc(C(=O)N[C@H]3COc4ccccc4N(C)C3=S)nc2Cc2ccccc2)nc1,> 100000,1950,–
CN1C(=S)[C@@H](NC(=O)c2nc(Cc3ccccc3)n(CCCCC#N)n2)COc2ccccc21,> 100000,2680,–
CCCn1nc(C(=O)N[C@H]2COc3ccccc3N(C)C2=S)nc1Cc1ccccc1,> 100000,288,–
CN1C(=S)[C@@H](NC(=O)c2nc(Cc3ccccc3)n(C3CCCC3)n2)COc2ccccc21,> 100000,3530,–
CCn1nc(C(=O)N[C@H]2COc3ccccc3N(C)C2=S)nc1Cc1ccccc1,> 100000,17,Kd [1]: 79 nM
CN1C(=O)[C@@H](NC(=O)c2nnc(Cc3ccccc3)[nH]2)COc2ccccc21 [GSK2982772],> 50000,–,–
COCCn1nc(C(=O)N[C@H]2COc3ccccc3N(C)C2=S)nc1Cc1ccccc1,> 100000,566,–
